Measured values: article PMC6429214, “Design, Synthesis and Biological Evaluation of Isoxazole-Based CK1 Inhibitors Modified with Chiral Pyrrolidine Scaffolds” (Molecules, 2019)

Key:
Assay in all cases: 33PanQinase panel
Type in all cases: biochemical
ACK1 = biological target: T1, ACK1 (Homo sapiens, UniProt Q07912); conditions: ACK1, 1 µM; read-out: Residual Activity (%)
T1 construct: purchased ProQinase
How it was run: (§1)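 Radiometric 33PanQinase activity assay, compound tested once at 1 µM, 1% DMSO final. Readout: % residual activity vs DMSO control.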

Aurora-A = biological target: T2, Aurora-A (Homo sapiens, UniProt O14965); conditions: read-out: Residual Activity (%)
T2 construct: purchased ProQinase
How it was run: as §1

BRSK2 = biological target: T3, BRSK2 (Homo sapiens, UniProt Q8IWQ3); conditions: BRSK2, 1 µM; read-out: Residual Activity (%)
T3 construct: purchased ProQinase
How it was run: as §1

CDC42BPA = biological target: T4, CDC42BPA (Homo sapiens, UniProt Q5VT25); conditions: read-out: Residual Activity (%)
T4 construct: purchased ProQinase
How it was run: as §1

CK1-epsilon = biological target: T5, CK1-epsilon (Homo sapiens, UniProt P49674); conditions: read-out: Residual Activity (%)
T5 construct: purchased ProQinase
How it was run: as §1

DAPK3 = biological target: T6, DAPK3 (Homo sapiens, UniProt O43293); conditions: DAPK3, 1 µM; read-out: Residual Activity (%)
T6 construct: purchased ProQinase
T6 sequence (O43293 whole entry): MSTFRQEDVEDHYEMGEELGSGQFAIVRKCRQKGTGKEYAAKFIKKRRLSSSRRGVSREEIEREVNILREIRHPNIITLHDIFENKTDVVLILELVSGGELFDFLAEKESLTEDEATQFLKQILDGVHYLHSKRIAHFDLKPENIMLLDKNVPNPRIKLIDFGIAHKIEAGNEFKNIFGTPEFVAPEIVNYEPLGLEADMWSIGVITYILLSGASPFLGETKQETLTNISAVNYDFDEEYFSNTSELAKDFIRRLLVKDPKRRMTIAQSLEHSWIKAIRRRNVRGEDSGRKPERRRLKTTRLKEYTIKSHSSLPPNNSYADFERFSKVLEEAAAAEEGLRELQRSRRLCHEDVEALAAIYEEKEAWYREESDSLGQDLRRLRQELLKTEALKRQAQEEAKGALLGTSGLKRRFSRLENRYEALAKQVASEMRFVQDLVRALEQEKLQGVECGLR
How it was run: as §1

DDR2 = biological target: T7, DDR2 (Homo sapiens, UniProt Q16832); conditions: DDR2, 1 µM; read-out: Residual Activity (%)
T7 construct: purchased ProQinase
How it was run: as §1

DYRK3 = biological target: T8, DYRK3 (Homo sapiens, UniProt O43781); conditions: DYRK3, 1 µM; read-out: Residual Activity (%)
T8 construct: purchased ProQinase
How it was run: as §1

EPHA2 = biological target: T9, EPHA2 (Homo sapiens, UniProt P29317); conditions: EPHA2, 1 µM; read-out: Residual Activity (%)
T9 construct: purchased ProQinase
How it was run: as §1

ERBB2 = biological target: T10, ERBB2 (Homo sapiens, UniProt P04626); conditions: ERBB2, 1 µM; read-out: Residual Activity (%)
T10 construct: purchased ProQinase
How it was run: as §1

GSG2 = biological target: T11, GSG2 (Homo sapiens, UniProt Q8TF76); conditions: GSG2, 1 µM; read-out: Residual Activity (%)
T11 construct: purchased ProQinase
How it was run: as §1

GSK3-alpha = biological target: T12, GSK3-alpha (Homo sapiens, UniProt P49840); conditions: read-out: Residual Activity (%)
T12 construct: purchased ProQinase
How it was run: as §1

HCK = biological target: T13, HCK (Homo sapiens, UniProt P08631); conditions: read-out: Residual Activity (%)
T13 construct: purchased ProQinase
T13 sequence (P08631 whole entry): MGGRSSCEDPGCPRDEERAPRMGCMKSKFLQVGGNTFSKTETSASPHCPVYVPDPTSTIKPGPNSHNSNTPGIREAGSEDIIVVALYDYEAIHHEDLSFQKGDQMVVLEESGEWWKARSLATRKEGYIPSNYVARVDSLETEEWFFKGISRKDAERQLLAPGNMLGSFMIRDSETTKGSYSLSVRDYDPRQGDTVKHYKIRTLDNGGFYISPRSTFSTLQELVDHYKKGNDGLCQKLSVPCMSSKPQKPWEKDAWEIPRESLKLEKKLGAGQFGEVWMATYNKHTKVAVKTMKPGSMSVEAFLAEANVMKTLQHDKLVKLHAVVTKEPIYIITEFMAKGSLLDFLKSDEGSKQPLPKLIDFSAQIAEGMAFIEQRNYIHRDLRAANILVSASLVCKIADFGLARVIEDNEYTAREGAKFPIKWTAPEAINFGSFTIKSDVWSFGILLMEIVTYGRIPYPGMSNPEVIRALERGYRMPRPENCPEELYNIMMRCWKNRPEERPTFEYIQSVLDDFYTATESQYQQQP
How it was run: as §1

HIPK4 = biological target: T14, HIPK4 (Homo sapiens, UniProt Q8NE63); conditions: HIPK4, 1 µM; read-out: Residual Activity (%)
T14 construct: purchased ProQinase
How it was run: as §1

INS-R = biological target: T15, INS-R (Homo sapiens, UniProt P06213); conditions: read-out: Residual Activity (%)
T15 construct: purchased ProQinase
T15 sequence (P06213 980-1382 limits assumed): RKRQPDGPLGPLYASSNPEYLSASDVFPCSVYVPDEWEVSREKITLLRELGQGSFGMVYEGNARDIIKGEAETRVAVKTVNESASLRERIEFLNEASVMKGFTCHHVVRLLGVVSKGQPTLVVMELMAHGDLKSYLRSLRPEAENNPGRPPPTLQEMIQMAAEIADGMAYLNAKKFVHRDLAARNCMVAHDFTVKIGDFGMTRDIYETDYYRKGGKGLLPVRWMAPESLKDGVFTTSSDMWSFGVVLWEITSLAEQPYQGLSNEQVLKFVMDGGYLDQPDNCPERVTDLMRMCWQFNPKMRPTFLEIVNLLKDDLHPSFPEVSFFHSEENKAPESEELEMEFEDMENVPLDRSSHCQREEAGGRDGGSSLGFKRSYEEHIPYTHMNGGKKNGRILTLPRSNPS
How it was run: as §1

IRAK1 = biological target: T16, IRAK1 (Homo sapiens, UniProt P51617); conditions: IRAK1, 1 µM; read-out: Residual Activity (%)
T16 construct: purchased ProQinase
T16 sequence (P51617 whole entry): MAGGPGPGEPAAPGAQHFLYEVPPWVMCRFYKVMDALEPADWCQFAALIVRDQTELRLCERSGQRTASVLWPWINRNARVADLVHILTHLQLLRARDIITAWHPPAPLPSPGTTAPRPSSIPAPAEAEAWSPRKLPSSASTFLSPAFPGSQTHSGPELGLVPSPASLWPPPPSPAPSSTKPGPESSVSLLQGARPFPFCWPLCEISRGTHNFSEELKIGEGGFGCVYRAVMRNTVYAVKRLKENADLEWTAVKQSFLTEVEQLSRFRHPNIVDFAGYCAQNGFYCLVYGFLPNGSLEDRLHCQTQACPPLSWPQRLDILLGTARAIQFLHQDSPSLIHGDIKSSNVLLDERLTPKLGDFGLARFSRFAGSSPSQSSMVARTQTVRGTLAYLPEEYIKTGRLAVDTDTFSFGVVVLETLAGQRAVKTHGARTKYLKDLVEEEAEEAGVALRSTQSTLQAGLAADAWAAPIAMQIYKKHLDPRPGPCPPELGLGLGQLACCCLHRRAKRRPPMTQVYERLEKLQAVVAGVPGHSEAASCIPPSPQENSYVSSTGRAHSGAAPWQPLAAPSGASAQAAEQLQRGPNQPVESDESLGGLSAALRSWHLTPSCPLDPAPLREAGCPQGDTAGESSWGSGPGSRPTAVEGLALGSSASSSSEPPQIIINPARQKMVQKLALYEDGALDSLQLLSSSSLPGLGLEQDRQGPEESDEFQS
How it was run: as §1

LCK = biological target: T17, LCK (Homo sapiens, UniProt P06239); conditions: read-out: Residual Activity (%)
T17 construct: purchased ProQinase
How it was run: as §1

LTK = biological target: T18, LTK (Homo sapiens, UniProt P29376); conditions: read-out: Residual Activity (%)
T18 construct: purchased ProQinase
How it was run: as §1

MAP3K7/MAP3K7IP1 = biological target: T19, MAP3K7/MAP3K7IP1 (Homo sapiens, UniProt O43318); conditions: MAP3K7/MAP3K7IP1, 1 µM; read-out: Residual Activity (%)
T19 construct: purchased ProQinase
How it was run: as §1

MLK4 = biological target: T20, MLK4 (Homo sapiens, UniProt Q5TCX8); conditions: MLK4, 1 µM; read-out: Residual Activity (%)
T20 construct: purchased ProQinase
How it was run: as §1

MST3 = biological target: T21, MST3 (Homo sapiens, UniProt Q9Y6E0); conditions: MST3, 1 µM; read-out: Residual Activity (%)
T21 construct: purchased ProQinase
T21 sequence (Q9Y6E0 whole entry): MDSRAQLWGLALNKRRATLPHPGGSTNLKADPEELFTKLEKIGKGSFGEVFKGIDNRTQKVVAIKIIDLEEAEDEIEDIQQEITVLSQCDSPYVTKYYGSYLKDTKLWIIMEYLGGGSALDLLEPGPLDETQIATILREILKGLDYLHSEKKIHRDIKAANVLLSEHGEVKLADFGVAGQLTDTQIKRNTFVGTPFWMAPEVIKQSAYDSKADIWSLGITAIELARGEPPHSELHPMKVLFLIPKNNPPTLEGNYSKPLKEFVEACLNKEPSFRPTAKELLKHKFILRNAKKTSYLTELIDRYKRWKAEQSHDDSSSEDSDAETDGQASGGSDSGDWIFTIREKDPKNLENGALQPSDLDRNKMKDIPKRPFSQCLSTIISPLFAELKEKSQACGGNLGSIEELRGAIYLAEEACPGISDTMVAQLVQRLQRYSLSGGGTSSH
How it was run: as §1

NEK7 = biological target: T22, NEK7 (Homo sapiens, UniProt Q8TDX7); conditions: NEK7, 1 µM; read-out: Residual Activity (%)
T22 construct: purchased ProQinase
T22 sequence (Q8TDX7 whole entry): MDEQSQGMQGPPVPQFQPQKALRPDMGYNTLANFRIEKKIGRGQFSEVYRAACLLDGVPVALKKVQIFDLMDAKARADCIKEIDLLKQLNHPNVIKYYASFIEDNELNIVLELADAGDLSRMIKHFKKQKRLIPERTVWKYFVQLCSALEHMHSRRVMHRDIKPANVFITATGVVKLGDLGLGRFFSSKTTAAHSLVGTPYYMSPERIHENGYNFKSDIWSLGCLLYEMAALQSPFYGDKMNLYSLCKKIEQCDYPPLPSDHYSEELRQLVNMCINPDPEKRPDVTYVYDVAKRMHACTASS
How it was run: as §1

[1] = biological target: T23, RAF1 Y340D/Y341D (untagged)** (Homo sapiens, UniProt P04049, Y340D/Y341D); conditions: read-out: Residual Activity (%)
T23 construct: purchased ProQinase
How it was run: as §1

RET = biological target: T24, RET (Homo sapiens, UniProt P07949); conditions: read-out: Residual Activity (%)
T24 construct: purchased ProQinase
T24 sequence (P07949 29-1114): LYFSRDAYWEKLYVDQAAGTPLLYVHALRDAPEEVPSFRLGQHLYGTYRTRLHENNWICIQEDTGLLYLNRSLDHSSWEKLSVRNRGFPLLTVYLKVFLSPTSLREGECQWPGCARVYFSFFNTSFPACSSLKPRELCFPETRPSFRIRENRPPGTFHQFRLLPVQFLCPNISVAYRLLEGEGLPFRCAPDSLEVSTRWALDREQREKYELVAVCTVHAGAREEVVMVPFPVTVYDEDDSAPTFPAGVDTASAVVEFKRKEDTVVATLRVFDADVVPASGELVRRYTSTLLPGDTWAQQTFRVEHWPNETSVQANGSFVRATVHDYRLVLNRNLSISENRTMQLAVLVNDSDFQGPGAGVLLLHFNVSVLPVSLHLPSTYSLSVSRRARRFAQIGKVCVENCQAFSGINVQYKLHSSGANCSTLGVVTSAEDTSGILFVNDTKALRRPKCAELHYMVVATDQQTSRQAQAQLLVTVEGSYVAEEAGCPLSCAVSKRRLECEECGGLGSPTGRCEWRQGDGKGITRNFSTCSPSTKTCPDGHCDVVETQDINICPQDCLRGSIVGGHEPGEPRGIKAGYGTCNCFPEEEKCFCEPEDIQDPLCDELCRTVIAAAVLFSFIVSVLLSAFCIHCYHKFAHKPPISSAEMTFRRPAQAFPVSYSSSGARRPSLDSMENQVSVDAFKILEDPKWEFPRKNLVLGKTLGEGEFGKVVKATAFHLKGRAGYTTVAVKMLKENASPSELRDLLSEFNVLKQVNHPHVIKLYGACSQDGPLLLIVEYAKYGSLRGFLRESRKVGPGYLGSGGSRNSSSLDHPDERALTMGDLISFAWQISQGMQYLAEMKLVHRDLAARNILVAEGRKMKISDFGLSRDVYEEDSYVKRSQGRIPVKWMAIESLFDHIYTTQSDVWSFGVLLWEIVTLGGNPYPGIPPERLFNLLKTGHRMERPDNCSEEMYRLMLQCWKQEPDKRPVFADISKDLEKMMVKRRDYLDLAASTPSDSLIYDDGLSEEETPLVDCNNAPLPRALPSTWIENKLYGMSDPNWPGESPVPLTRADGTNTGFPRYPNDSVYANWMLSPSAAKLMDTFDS
How it was run: as §1

SGK1 = biological target: T25, SGK1 (Homo sapiens, UniProt O00141); conditions: SGK1, 1 µM; read-out: Residual Activity (%)
T25 construct: purchased ProQinase
How it was run: as §1

SNARK = biological target: T26, SNARK (Homo sapiens, UniProt Q9H093); conditions: read-out: Residual Activity (%)
T26 construct: purchased ProQinase
How it was run: as §1

STK39 = biological target: T27, STK39 (Homo sapiens, UniProt Q9UEW8); conditions: STK39, 1 µM; read-out: Residual Activity (%)
T27 construct: purchased ProQinase
How it was run: as §1

SYK aa1-635 = biological target: T28, SYK aa1-635 (Homo sapiens, UniProt P43405); conditions: SYK aa1-635, 1 µM; read-out: Residual Activity (%)
T28 construct: purchased ProQinase
How it was run: as §1

p38-gamma = biological target: T29, p38-gamma (Homo sapiens, UniProt P53778); conditions: read-out: Residual Activity (%)
T29 construct: purchased ProQinase
How it was run: as §1

T1 sequence (Q07912 whole entry): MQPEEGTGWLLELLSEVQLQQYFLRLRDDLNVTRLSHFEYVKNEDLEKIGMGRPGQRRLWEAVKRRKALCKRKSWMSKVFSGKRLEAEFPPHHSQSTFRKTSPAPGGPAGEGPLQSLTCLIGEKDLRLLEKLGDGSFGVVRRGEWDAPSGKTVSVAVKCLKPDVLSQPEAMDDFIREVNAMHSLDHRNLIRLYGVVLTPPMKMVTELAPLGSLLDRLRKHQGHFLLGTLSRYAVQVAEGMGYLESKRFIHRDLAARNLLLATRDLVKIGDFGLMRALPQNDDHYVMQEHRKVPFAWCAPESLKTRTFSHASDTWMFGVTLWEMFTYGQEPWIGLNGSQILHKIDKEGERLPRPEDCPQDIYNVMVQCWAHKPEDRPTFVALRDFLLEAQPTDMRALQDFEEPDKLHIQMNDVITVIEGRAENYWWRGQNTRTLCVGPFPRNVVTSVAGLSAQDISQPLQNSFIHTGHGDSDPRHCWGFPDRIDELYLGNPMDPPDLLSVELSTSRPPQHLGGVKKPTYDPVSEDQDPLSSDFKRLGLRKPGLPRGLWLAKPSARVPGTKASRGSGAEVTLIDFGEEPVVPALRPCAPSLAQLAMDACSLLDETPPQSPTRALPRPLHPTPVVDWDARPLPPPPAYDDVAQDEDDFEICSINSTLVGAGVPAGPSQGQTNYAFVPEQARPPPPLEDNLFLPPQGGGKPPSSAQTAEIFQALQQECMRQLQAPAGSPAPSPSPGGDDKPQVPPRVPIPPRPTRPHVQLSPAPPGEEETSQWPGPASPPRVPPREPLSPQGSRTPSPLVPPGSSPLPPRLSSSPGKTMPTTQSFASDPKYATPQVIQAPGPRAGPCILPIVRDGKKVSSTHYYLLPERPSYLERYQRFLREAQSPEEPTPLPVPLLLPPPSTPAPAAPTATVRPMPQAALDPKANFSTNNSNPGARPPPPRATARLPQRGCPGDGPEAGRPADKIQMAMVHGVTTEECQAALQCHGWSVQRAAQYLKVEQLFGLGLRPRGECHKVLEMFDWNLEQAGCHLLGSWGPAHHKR

## COc1ccc(-c2cc(C(=O)Nc3cc(-c4c(-c5ccc(F)cc5)noc4C(C)C)ccn3)n(CC3NCC(O)C3O)c2)cc1 (centres unmarked) [29d]
ACK1
  remaining activity at 1 µM: 96%
Aurora-A
  remaining activity at 1 µM: 103%
BRSK2
  remaining activity at 1 µM: 90%
CDC42BPA
  remaining activity at 1 µM: 100%
CK1-epsilon
  remaining activity at 1 µM: 4%
DAPK3
  remaining activity at 1 µM: 90%
DDR2
  remaining activity at 1 µM: 95%
DYRK3
  remaining activity at 1 µM: 106%
EPHA2
  remaining activity at 1 µM: 103%
ERBB2
  remaining activity at 1 µM: 121%
GSG2
  remaining activity at 1 µM: 91%
GSK3-alpha
  remaining activity at 1 µM: 103%
HCK
  remaining activity at 1 µM: 110%
HIPK4
  remaining activity at 1 µM: 91%
INS-R
  remaining activity at 1 µM: 101%
IRAK1
  remaining activity at 1 µM: 91%
LCK
  remaining activity at 1 µM: 96%
LTK
  remaining activity at 1 µM: 98%
MAP3K7/MAP3K7IP1
  remaining activity at 1 µM: 95%
MLK4
  remaining activity at 1 µM: 112%
MST3
  remaining activity at 1 µM: 117%
NEK7
  remaining activity at 1 µM: 116%
[1]
  remaining activity at 1 µM: 103%
RET
  remaining activity at 1 µM: 97%
SGK1
  remaining activity at 1 µM: 102%
SNARK
  remaining activity at 1 µM: 123%
STK39
  remaining activity at 1 µM: 110%
SYK aa1-635
  remaining activity at 1 µM: 148%
p38-gamma
  remaining activity at 1 µM: 99%
